Measurements as given in PubChem BioAssay (NCI).
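Briefly, cells in 96-well plates were exposed to five compound concentrations for 48 h, and endpoints were estimated by linear interpolation. At the GI50, growth is halved. TGI is the concentration that stops growth completely.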

Experiments:
Experiment in all cases: DTP human tumour cell line panel, 48 h
OVCAR-5 ovarian = tested on: OVCAR-5 ovarian
NCI/ADR-RES ovarian = tested on: NCI/ADR-RES ovarian
MOLT-4 leukemia = tested on: MOLT-4 leukemia
SF-295 CNS = tested on: SF-295 CNS
NCI-H23 lung = tested on: NCI-H23 lung
A549 NSCLC = tested on: A549 NSCLC
LOX IMVI melanoma = tested on: LOX IMVI melanoma
NCI-H522 lung = tested on: NCI-H522 lung
RXF 393 renal = tested on: RXF 393 renal
M14 melanoma = tested on: M14 melanoma
NCI-H226 lung = tested on: NCI-H226 lung
MDA-MB-435 = tested on: MDA-MB-435
OVCAR-8 ovarian = tested on: OVCAR-8 ovarian
T-47D breast = tested on: T-47D breast
DU-145 prostate = tested on: DU-145 prostate
RPMI-8226 leukemia = tested on: RPMI-8226 leukemia
SK-OV-3 ovarian = tested on: SK-OV-3 ovarian
SNB-19 CNS = tested on: SNB-19 CNS
PC-3 prostate = tested on: PC-3 prostate
SF-268 CNS = tested on: SF-268 CNS
HCC-2998 colon = tested on: HCC-2998 colon
HCT-116 colon = tested on: HCT-116 colon
U251 CNS = tested on: U251 CNS
SK-MEL-28 melanoma = tested on: SK-MEL-28 melanoma
EKVX NSCLC = tested on: EKVX NSCLC
SK-MEL-2 melanoma = tested on: SK-MEL-2 melanoma
SN12C renal = tested on: SN12C renal
OVCAR-3 ovarian = tested on: OVCAR-3 ovarian
UO-31 renal = tested on: UO-31 renal
SW-620 colon = tested on: SW-620 colon
SR leukemia = tested on: SR leukemia
KM12 colon = tested on: KM12 colon
MALME-3M melanoma = tested on: MALME-3M melanoma
SK-MEL-5 melanoma = tested on: SK-MEL-5 melanoma
HOP-62 NSCLC = tested on: HOP-62 NSCLC
SF-539 CNS = tested on: SF-539 CNS
HL-60(TB) leukemia = tested on: HL-60(TB) leukemia
K-562 leukemia = tested on: K-562 leukemia
UACC-257 melanoma = tested on: UACC-257 melanoma
OVCAR-4 ovarian = tested on: OVCAR-4 ovarian
SNB-75 CNS = tested on: SNB-75 CNS
NCI-H460 lung = tested on: NCI-H460 lung
COLO 205 colon = tested on: COLO 205 colon
UACC-62 melanoma = tested on: UACC-62 melanoma
CCRF-CEM leukemia = tested on: CCRF-CEM leukemia
ACHN renal = tested on: ACHN renal
MDA-MB-231 breast = tested on: MDA-MB-231 breast
HS 578T breast = tested on: HS 578T breast
MCF7 breast = tested on: MCF7 breast
BT-549 breast = tested on: BT-549 breast
786-0 renal = tested on: 786-0 renal
IGROV1 ovarian = tested on: IGROV1 ovarian
HCT-15 colon = tested on: HCT-15 colon
HT29 colon = tested on: HT29 colon
A498 renal = tested on: A498 renal
HOP-92 NSCLC = tested on: HOP-92 NSCLC

**Q.** Which results are given for Cn1cc(-c2ccc(-c3cncc(Cl)c3N3CCC4(CCNC4=O)CC3)cc2)cn1?
**A.** GI50 (OVCAR-5 ovarian): > 100 µM; TGI (OVCAR-5 ovarian): > 100 µM; GI50 (NCI/ADR-RES ovarian): 45.3 µM; TGI (NCI/ADR-RES ovarian): > 100 µM; GI50 (MOLT-4 leukemia): 15.5 µM; TGI (MOLT-4 leukemia): > 100 µM; GI50 (SF-295 CNS): 66.7 µM; TGI (SF-295 CNS): > 100 µM; GI50 (NCI-H23 lung): > 100 µM; TGI (NCI-H23 lung): > 100 µM; GI50 (A549 NSCLC): 29 µM; TGI (A549 NSCLC): > 100 µM; GI50 (LOX IMVI melanoma): 77.1 µM; TGI (LOX IMVI melanoma): > 100 µM; GI50 (NCI-H522 lung): 26.4 µM; TGI (NCI-H522 lung): > 100 µM; GI50 (RXF 393 renal): 18.2 µM; TGI (RXF 393 renal): > 100 µM; GI50 (M14 melanoma): 76 µM; TGI (M14 melanoma): > 100 µM; GI50 (NCI-H226 lung): 65.5 µM; TGI (NCI-H226 lung): > 100 µM; GI50 (MDA-MB-435): 38.7 µM; TGI (MDA-MB-435): > 100 µM; GI50 (OVCAR-8 ovarian): 29.4 µM; TGI (OVCAR-8 ovarian): > 100 µM; GI50 (T-47D breast): 25.9 µM; TGI (T-47D breast): > 100 µM; GI50 (DU-145 prostate): 50.3 µM; TGI (DU-145 prostate): > 100 µM; GI50 (RPMI-8226 leukemia): 17 µM; TGI (RPMI-8226 leukemia): 95.3 µM; GI50 (SK-OV-3 ovarian): 41.6 µM; TGI (SK-OV-3 ovarian): > 100 µM; GI50 (SNB-19 CNS): > 100 µM; TGI (SNB-19 CNS): > 100 µM; GI50 (PC-3 prostate): 47.3 µM; TGI (PC-3 prostate): > 100 µM; GI50 (SF-268 CNS): 61.2 µM; TGI (SF-268 CNS): > 100 µM; GI50 (HCC-2998 colon): > 100 µM; TGI (HCC-2998 colon): > 100 µM; GI50 (HCT-116 colon): 24.3 µM; TGI (HCT-116 colon): > 100 µM; GI50 (U251 CNS): 51.3 µM; TGI (U251 CNS): > 100 µM; GI50 (SK-MEL-28 melanoma): 79.2 µM; TGI (SK-MEL-28 melanoma): > 100 µM; GI50 (EKVX NSCLC): 51.9 µM; TGI (EKVX NSCLC): > 100 µM; GI50 (SK-MEL-2 melanoma): 24.7 µM; TGI (SK-MEL-2 melanoma): > 100 µM; GI50 (SN12C renal): 63.2 µM; TGI (SN12C renal): > 100 µM; GI50 (OVCAR-3 ovarian): 34.3 µM; TGI (OVCAR-3 ovarian): > 100 µM; GI50 (UO-31 renal): 29 µM; TGI (UO-31 renal): > 100 µM; GI50 (SW-620 colon): 47.7 µM; TGI (SW-620 colon): > 100 µM; GI50 (SR leukemia): 1.68 µM; TGI (SR leukemia): 21.2 µM; GI50 (KM12 colon): 33.3 µM; TGI (KM12 colon): > 100 µM; GI50 (MALME-3M melanoma): 66.6 µM; TGI (MALME-3M melanoma): > 100 µM; GI50 (SK-MEL-5 melanoma): 40.3 µM; TGI (SK-MEL-5 melanoma): > 100 µM; GI50 (HOP-62 NSCLC): 39.6 µM; TGI (HOP-62 NSCLC): > 100 µM; GI50 (SF-539 CNS): 27.8 µM; TGI (SF-539 CNS): > 100 µM; GI50 (HL-60(TB) leukemia): 20.4 µM; TGI (HL-60(TB) leukemia): 55.5 µM; GI50 (K-562 leukemia): 26.9 µM; TGI (K-562 leukemia): > 100 µM; GI50 (UACC-257 melanoma): > 100 µM; TGI (UACC-257 melanoma): > 100 µM; GI50 (OVCAR-4 ovarian): 65.1 µM; TGI (OVCAR-4 ovarian): > 100 µM; GI50 (SNB-75 CNS): 34.8 µM; TGI (SNB-75 CNS): > 100 µM; GI50 (NCI-H460 lung): 69.1 µM; TGI (NCI-H460 lung): > 100 µM; GI50 (COLO 205 colon): 10.6 µM; TGI (COLO 205 colon): > 100 µM; GI50 (UACC-62 melanoma): 60.7 µM; TGI (UACC-62 melanoma): > 100 µM; GI50 (CCRF-CEM leukemia): 44.5 µM; TGI (CCRF-CEM leukemia): > 100 µM; GI50 (ACHN renal): 23 µM; TGI (ACHN renal): > 100 µM; GI50 (MDA-MB-231 breast): > 100 µM; TGI (MDA-MB-231 breast): > 100 µM; GI50 (HS 578T breast): 80.1 µM; TGI (HS 578T breast): > 100 µM; GI50 (MCF7 breast): 38.5 µM; TGI (MCF7 breast): > 100 µM; GI50 (BT-549 breast): 26 µM; TGI (BT-549 breast): > 100 µM; GI50 (786-0 renal): 14.6 µM; TGI (786-0 renal): > 100 µM; GI50 (IGROV1 ovarian): 68 µM; TGI (IGROV1 ovarian): > 100 µM; GI50 (HCT-15 colon): 40.1 µM; TGI (HCT-15 colon): > 100 µM; GI50 (HT29 colon): 16.9 µM; TGI (HT29 colon): > 100 µM; GI50 (A498 renal): 14.1 µM; TGI (A498 renal): > 100 µM; GI50 (HOP-92 NSCLC): > 100 µM; TGI (HOP-92 NSCLC): > 100 µM
